Experimental data reported in patent US11535643B2, “Macrolides with modified desosamine sugars and uses thereof” (President and Fellows of Harvard College, priority 2015, dated 2022).
Converted amounts (≈) assume the structure as drawn. Read-outs that look alike come from different tables or passages of the source.

Assays:
Format in all cases: cell-based
[1] = test system: H. influenzae; experiment: Broth dilution MIC determination (CLSI) against H. influenzae strains; details: Haemophilus influenzae
Description: Minimum inhibitory concentrations (MICs) for macrolides described herein have been determined for unique strains of S. aureus, S. pneumoniae, S. pyogenes, E. faecalis, E. coli, A. baumannii, K. pneumoniae, P. aeruginosa, and H. influenzae, including several multidrug-resistant strains, with a special focus on macrolide resistant mechanisms. Azithromycin and solithromycin were included as control compounds. CLSI standard procedures for broth dilution MIC determination were used. Data for exemplary compounds described herein is shown in Tables M1-M7 and in Tables N1-N4.

[2] = test system: S. aureus; experiment: Broth dilution MIC determination (CLSI) against S. aureus strains; details: Staphylococcus aureus
Summary of the method: (§1)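 Macrolide MICs come from CLSI-standard broth dilution testing of distinct strains, several multidrug-resistant, selected with attention to macrolide resistance mechanisms; two reference macrolides, azithromycin and solithromycin, were included.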

[3] = test system: P. aeruginosa; experiment: Broth dilution MIC determination (CLSI) against P. aeruginosa strains; details: Pseudomonas aeruginosa
Summary of the method: as §1

[4] = test system: S. pyogenes; experiment: Broth dilution MIC determination (CLSI) against S. pyogenes strains; details: Streptococcus pyogenes
Summary of the method: as §1

[5] = test system: S. pneumoniae; experiment: Broth dilution MIC determination (CLSI) against S. pneumoniae strains; details: Streptococcus pneumoniae
Summary of the method: as §1

[6] = test system: A. baumannii; experiment: Broth dilution MIC determination (CLSI) against A. baumannii strains; details: Acinetobacter baumannii
Summary of the method: as §1

[7] = test system: K. pneumoniae; experiment: Broth dilution MIC determination (CLSI) against K. pneumoniae strains; details: Klebsiella pneumoniae
Summary of the method: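 Azithromycin and solithromycin served as controls; MICs were obtained by standard CLSI broth dilution on a strain panel including multidrug-resistant and macrolide-resistant isolates.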

[8] = test system: E. coli; experiment: Broth dilution MIC determination (CLSI) against E. coli strains; details: Escherichia coli
Summary of the method: as §1

[9] = test system: E. faecalis; experiment: Broth dilution MIC determination (CLSI) against E. faecalis strains; details: Enterococcus faecalis
Summary of the method: as §1

[10] = ATCC49247, ATCC49247, read-out: MIC H. influenzae ATCC49247
[11] = erythro > 4, azithro 1, read-out: MIC H. influenzae erythro > 4, azithro 1
[12] = ATCC29213, ATCC29213, read-out: MIC S. aureus ATCC29213
[13] = MRSA / USA100, MRSA: USA100, read-out: MIC S. aureus MRSA: USA100
[14] = MRSA / USA300, MRSA: USA300, read-out: MIC S. aureus MRSA: USA300
[15] = USA600, USA600, GISA, read-out: MIC S. aureus USA600, GISA
[16] = read-out: MIC S. aureus erm A genotype
[17] = ATCC27853, read-out: MIC P. aeruginosa ATCC27853
[18] = ATCC19615, ATCC19615, read-out: MIC S. pyogenes ATCC19615
[19] = macrolide-resistant, read-out: MIC S. pyogenes macrolide-resistant
[20] = ATCC49619, ATCC49619, read-out: MIC S. pneumoniae ATCC49619
[21] = erm B + mef A genotype, read-out: MIC S. pneumoniae erm B + mef A genotype
[22] = erm B + tet(M, O) genotype, read-out: MIC S. pneumoniae erm B + tet(M, O) genotype
[23] = read-out: MIC S. pneumoniae mef A genotype, mef A genotype
[24] = read-out: MIC S. pneumoniae mef A genotype, mef A genotype, first of two such columns (c3)
[25] = ATCC19606, ATCC19606, read-out: MIC A. baumannii ATCC19606
[26] = imipenem-resistant, read-out: MIC A. baumannii imipenem-resistant
[27] = ATCC10031, ATCC10031, read-out: MIC K. pneumoniae ATCC10031
[28] = KPC-2, read-out: MIC K. pneumoniae KPC-2
[29] = ATCC25922, ATCC25922, read-out: MIC E. coli ATCC25922
[30] = read-out: MIC E. coli NDM-1, NDM-1
[31] = ATCC29212, ATCC29212, read-out: MIC E. faecalis ATCC29212
[32] = Vancomycin-resistant, read-out: MIC E. faecalis Vancomycin-resistant

SMILES	MIC [1, 10] [µg/mL]	MIC [1, 11] [µg/mL]	MIC [2, 12] [µg/mL]	MIC [2, 13] [µg/mL]	MIC [2, 14] [µg/mL]	MIC [2, 15] [µg/mL]	MIC [2, 16] [µg/mL]	MIC [3, 17] [µg/mL]	MIC [4, 18] [µg/mL]	MIC [4, 19] [µg/mL]	MIC [5, 20] [µg/mL]	MIC [5, 21] [µg/mL]	MIC [5, 22] [µg/mL]	MIC [5, 23] [µg/mL]	MIC [5, 24] [µg/mL]	MIC [6, 25] [µg/mL]	MIC [6, 26] [µg/mL]	MIC [7, 27] [µg/mL]	MIC [7, 28] [µg/mL]	MIC [8, 29] [µg/mL]	other results
CC[C@H]1OC(=O)[C@H](C)C(=O)[C@H](C)[C@@H](O[C@@H]2OC(CNC(=O)C(Cl)Cl)CC(N(C)C)C2O)[C@](C)(OC)C[C@@H](C)CN[C@H](C)[C@H]2N(CCCCn3cc(-c4cccc(N)c4)nn3)C(=O)O[C@]12C (some centres unmarked) [FSM-21842]	4 (≈ 4.19 µM)	4 (≈ 4.19 µM)	4 (≈ 4.19 µM)	> 32	> 32	> 32	> 32	> 32	≤ 0.0312	0.5 (≈ 0.524 µM)	≤ 0.0312	8	≤ 0.0312	1 (≈ 1.05 µM)	0.125 (≈ 0.131 µM)	32 (≈ 33.5 µM)	> 32	4 (≈ 4.19 µM)	> 32	16 (≈ 16.8 µM)	MIC ([3]; read-out: MIC P. aeruginosa HPA101-1477): > 32 µg/mL; MIC ([6]; IMP-4, read-out: MIC A. baumannii IMP-4): > 32 µg/mL; MIC ([6]; chromosomal class C, read-out: MIC A. baumannii chromosomal class C): > 32 µg/mL; MIC ([7]; SHV-12, read-out: MIC K. pneumoniae SHV-12): > 32 µg/mL; MIC ([7]; TEM-10, read-out: MIC K. pneumoniae TEM-10): 32 µg/mL (≈ 33.5 µM); MIC ([8]; read-out: MIC E. coli CTX-M-14, CTX-M-14): > 32 µg/mL; MIC [8, 30]: 32 µg/mL (≈ 33.5 µM); MIC ([8]; read-out: MIC E. coli TEM-1, TEM-1): 16 µg/mL (≈ 16.8 µM); MIC [9, 31]: 1 µg/mL (≈ 1.05 µM); MIC [9, 32]: > 32 µg/mL
CC[C@H]1OC(=O)[C@H](C)C(=O)[C@H](C)[C@@H](O[C@@H]2OC(CNC(=N)N)CC(N(C)C)C2O)[C@](C)(OC)C[C@@H](C)CN[C@H](C)[C@H]2N(CCCCn3cc(-c4cccc(N)c4)nn3)C(=O)O[C@]12C (some centres unmarked) [FSM-21843]	32 (≈ 36.2 µM)	32 (≈ 36.2 µM)	> 32	> 32	> 32	> 32	> 32	> 32	2 (≈ 2.26 µM)	8 (≈ 9.04 µM)	0.5 (≈ 0.565 µM)	32	0.25	8 (≈ 9.04 µM)	4 (≈ 4.52 µM)	> 32	> 32	32 (≈ 36.2 µM)	> 32	> 32	MIC [8, 30]: > 32 µg/mL; MIC [9, 31]: > 32 µg/mL; MIC [9, 32]: > 32 µg/mL
